Measurements taken from PMC6568410, “A scorpion venom peptide derivative BmKn‒22 with potent antibiofilm activity against Pseudomonas aeruginosa” (PLoS ONE, 2019).
Where no end group is shown, it is not given here.

How the values were obtained:
[1] = test system: P. aeruginosa PAO1 established biofilms; assay: Established (24 h-preformed) biofilm assay, crystal violet staining; assay type: cell-based, Pseudomonas aeruginosa
Protocol: Antibiofilm activity of the test peptides was also examined against established biofilms as follows. Aliquots of the P. aeruginosa PAO1 suspension adjusted to a final concentration of 10^6 CFU/mL were seeded into the wells of flat-bottomed 96-well microtiter plates (Nunc). Biofilms were established at 37°C for 24 h. After incubation, nonadherent planktonic cells were removed by gently washing the wells with sterile PBS pH 7.4. Preformed biofilms were then treated with the test peptides at concentrations of 200 ‒ 800 μM and incubated at 37°C for 24 h. Culture without the test peptides served as the untreated control. After the incubation, the test peptides were aspirated gently and the plates were rinsed twice with PBS pH 7.4. Biofilm biomass was subsequently quantified by 0.1% crystal violet staining as previously described.

lasR mRNA = assay: qRT-PCR of quorum sensing-related gene lasR; assay type: cell-based, Pseudomonas aeruginosa; details: 800 µM, 10 h
Protocol: (§1) The effects of BmKn‒22 peptide on the expression of quorum sensing‒related genes in P. aeruginosa PAO1 were assessed by qPCR. Briefly, bacterial suspension at approximately 10^7 CFU/mL was cultured in the presence or absence of the test peptide (800 μM, final concentration) at 37 ^OC for 10 h using a shaking incubator. After centrifugation at 4,500 rpm for 10 minutes, the bacterial cells were harvested and subsequently subjected to total RNA extraction using TRIzol® reagent (Invitrogen, USA) as per the manufacturer’s instruction. The concentration of the extracted RNA was measured using Nanodrop spectrophotometer (NanoDrop Technologies, USA). Thereafter, 1 μg of extracted RNA was reverse-transcribed into cDNA using Random Hexamer primer and RevertAid First Strand cDNA synthesis kit (Fermantas), which was amplified by real-time PCR. The primers for the genes lasI, lasR, RhlI, RhlR and 16S rRNA were used (Table 2). All primers were synthesized by the Integrated DNA Technology (IDT), Canada. The reaction mixture consisted of 1× AccuPower® 2X GreenStar™ qPCR Master Mix, 0.4 μmol/L each forward primer and reverse primer and 1 μL of cDNA in a final volume of 10 μL. Thermal cycles used was 95 ^OC for 2.5 min, followed by 40 cycles of 95 ^OC for 30 sec, 60 ^OC for 30 sec and 72 ^OC for 30 sec. The expression level of the target gene was normalized to 16S rRNA gene. Relative expression of the target genes was obtained from 2^‒ΔΔct.

rhlR mRNA = assay: qRT-PCR of quorum sensing-related gene rhlR; assay type: cell-based, Pseudomonas aeruginosa; details: 800 µM, 10 h
Protocol: as §1

[2] = test system: P. aeruginosa PAO1 biofilms; assay: Antibiofilm activity of BmKn-22 and azithromycin alone or in combination, crystal violet; assay type: cell-based, Pseudomonas aeruginosa
Protocol: The effect of BmKn‒2 peptide and derivatives on biofilm formation of P. aeruginosa PAO1 was determined according to the method published previously with some modifications. Briefly, 100 μL of the test peptides was plated into the wells of flat-bottomed 96-well microtiter plates (Nunc™, Roskilde, Denmark) at the final concentrations of 200 ‒ 800 μM. Aliquots of the P. aeruginosa PAO1 suspension were then inoculated to the wells of 96-well microtiter plates to obtain a final concentration of 10^6 CFU/mL. Culture without the test peptides was used as the untreated control. After incubation at 37 ^OC for 24 h without agitation, planktonic cells were removed and the plates were gently rinsed twice with phosphate buffered saline (PBS) pH 7.4. Biofilms were then stained with 0.1% crystal violet solution (Merck, Darmstadt, Germany) for 10 minutes at room temperature. Excess stains were rinsed off with PBS pH 7.4 and the plates were left dry at 37 ^OC for 2 h. Subsequently, biofilm biomass was solubilized with 30% acetic acid and the optical density (OD) measured at 550 nm using a microplate reader (BioTek Synergy HT).
Briefly, P. aeruginosa PAO1 suspension (10^6 CFU/mL, final concentration) was added to the wells of flat-bottomed 96-well microtiter plates (Nunc) containing the test peptide, azithromycin (AZM; Sigma) alone or in combinations. […] Biofilm formation was employed by measuring biofilm biomass stained with crystal violet as a protocol described in previous section.

[3] = test system: L929 mouse fibroblast cells; assay: Cytotoxicity, MTT assay; assay type: cell-based; details: 800 µM, 24 h; for Cell viability (%): L929 cells
Protocol: The toxicity of the test peptides against L929 mouse fibroblast cells was assessed by 3-(4,5-dimethylthiazol-2-yl)-2,5-diphenyltetrazolium bromide (MTT) assay. L929 mouse fibroblast cells from American Type Culture Collection (ATCC, Manassas, VA, USA) were cultured in Dulbecco's Modified Eagle Medium (DMEM; HyClone, Utah, USA) supplemented with 10% fetal bovine serum (Gibco, South America), 10 mM 4-(2-hydroxyethyl)-1 piperazineethanesulfonic acid (HEPES; HyClone, Utah, USA), 2 mM L-glutamine (Gibco, Brazil) and 100 U/mL penicillin and 100 μg/ml streptomycin (Gibco, USA) in a 5% CO2 atmosphere at 37°C. L929 cells (2×10^4 cells/well) were seeded in 96-well plates (Nunc) and incubated overnight. The culture medium was discarded and replaced by 100 μL of fresh DMEM containing the test compounds (final concentration 800 μM). Cells without the test compounds served as untreated control. After 24 h incubation, 20 μL of MTT solution (5 mg/mL; Sigma, St. Louis, MO, USA) was added and incubated for 3 h. The culture supernatant was removed and 100 μL dimethyl sulfoxide was added to each well to dissolve the formazan crystals. The absorbance was measured at 540 nm on a microplate reader (BioTek Synergy HT). Percentage of cell viability was calculated according to the equation: (OD of treated cells/ OD of untreated cells) × 100.

[4] = normalized to 16S rRNA, 2^-ΔΔct, untreated control = 1, mean of 2 independent experiments in quadruplicate

## FIGAIARLLSK [BmKn-22]
[1]; 200 µM, Exp. 1
  Biofilm inhibition (%), preformed biofilm: 30.458%
[1]; 200 µM, Exp. 2
  Biofilm inhibition (%), preformed biofilm: 17.360%
[1]; 200 µM, Exp. 3
  Biofilm inhibition (%), preformed biofilm: 22.328%
[1]; 400 µM, Exp. 1
  Biofilm inhibition (%), preformed biofilm: 27.005%
[1]; 400 µM, Exp. 2
  Biofilm inhibition (%), preformed biofilm: 32.202%
[1]; 400 µM, Exp. 3
  Biofilm inhibition (%), preformed biofilm: 27.300%
[1]; 800 µM, Exp. 1
  Biofilm inhibition (%), preformed biofilm: 44.831%
[1]; 800 µM, Exp. 2
  Biofilm inhibition (%), preformed biofilm: 34.141%
[1]; 800 µM, Exp. 3
  Biofilm inhibition (%), preformed biofilm: 53.943%
lasR mRNA; [4]
  Relative mRNA expression, lasR: 0.949
lasR mRNA; Exp. 1
  Relative mRNA expression, lasR: 0.732
lasR mRNA; Exp. 2
  Relative mRNA expression, lasR: 1.166
lasR mRNA; result in words
  mRNA expression of lasR: no alteration
rhlR mRNA; [4]
  Relative mRNA expression, rhlR: 0.511
rhlR mRNA; Exp. 1
  Relative mRNA expression, rhlR: 0.408
rhlR mRNA; Exp. 2
  Relative mRNA expression, rhlR: 0.614
rhlR mRNA; result in words
  mRNA expression of rhlR: significantly (P < 0.05) decreased
[2]; BmKn-22 at 200 µM combined with 64 µg/mL azithromycin (1/2 MIC)
  biofilm reduction: Up to 51.39%
[2]; BmKn-22 at 400 µM combined with 64 µg/mL azithromycin (1/2 MIC)
  biofilm reduction: ≤ 62.05%
[2]; BmKn-22 at 800 µM combined with 64 µg/mL azithromycin (1/2 MIC)
  biofilm reduction: 96.97%
[2]; peptide alone 200 µM, 24 h, 37 °C, crystal violet, mean of 3 independent experiments
  Biofilm biomass (% control): 80.903 % control
[2]; peptide alone 200 µM, Exp. 1
  Biofilm biomass (% control): 94.033 % control
[2]; peptide alone 200 µM, Exp. 2
  Biofilm biomass (% control): 82.424 % control
[2]; peptide alone 200 µM, Exp. 3
  Biofilm biomass (% control): 66.251 % control
[2]; peptide alone 400 µM, 24 h, 37 °C, crystal violet, mean of 3 independent experiments
  Biofilm biomass (% control): 67.309 % control
[2]; peptide alone 400 µM, Exp. 1
  Biofilm biomass (% control): 75.858 % control
[2]; peptide alone 400 µM, Exp. 2
  Biofilm biomass (% control): 68.773 % control
[2]; peptide alone 400 µM, Exp. 3
  Biofilm biomass (% control): 57.297 % control
[2]; peptide alone 800 µM, 24 h, 37 °C, crystal violet, mean of 3 independent experiments
  Biofilm biomass (% control): 43.753 % control
[2]; peptide alone 800 µM, Exp. 1
  Biofilm biomass (% control): 51.716 % control
[2]; peptide alone 800 µM, Exp. 2
  Biofilm biomass (% control): 46.698 % control
[2]; peptide alone 800 µM, Exp. 3
  Biofilm biomass (% control): 32.845 % control
[3]; compared with untreated control, result in words
  effect on viability of L929 cells: low effects on cell viability
[3]; Exp. 1
  Cell viability (%): 108.407%
[3]; Exp. 2
  Cell viability (%): 75.218%
[3]; Exp. 3
  Cell viability (%): 94.787%
